For one assay, the system named is ob/ob mice. The assay can be described thus: Hypoglycemic effect of compound F7, fasting blood glucose, 3 weeks. The following applies: oral 50 mg/kg once daily. In kind it is in vivo. The protocol: Genetic spontaneous diabetes ob/ob mice were purchased from Jackson (USA), and maintained in a SPF facility (temperature: 22-24° C., humidity: 45-80%, illumination: 150-300 Lx, 12/12-hour light/dark cycle). Fasting blood glucose was determined for 3 days continuously when the mice were 7 weeks old. The mice were grouped into the treatment group and the control group (8 animals per group) according to the results determined. The two groups were administered orally with compound F7 (50 mg/kg) and a solution of 0.1% Tween 80 respectively, once daily for 3 weeks. Fasting Blood Glucose levels of mice were measured regularly.

Assay [1] has as its system AMP-Activated Protein Kinase (AMPK). The assay can be described thus: Phosphorylation of AMPK in HepG2 cell (Western blot). The format is cell-based, Human. The note with it: HepG2, 50 uM, 5 minutes, P<0.01 or P<0.05. An outline of the steps:
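HepG2 cells were serum-starved 6 h in MEM with 0.5% BSA, then treated with compound at 50 uM final (0.25% DMSO) for 5 min, with DMSO as control. Lysates (15 μg/lane) were immunoblotted for phospho-AMPK and phospho-ACC with ECL detection. Band grey levels, normalized to an internal standard, are expressed relative to the normal group set as 1.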

Assay [2] concerns diet-induced obese (DIO) mice. Nature of the assay: Effect of F7 on body weight of diet-induced obese mice. The format is in vivo, C57BL/6J mice. The note with it: for Body weight: oral 50 mg/kg daily; for Body weight reduction compared with the model control group: oral 50 mg/kg. The protocol:
Male C57BL/6J mice were maintained a SPF facility (temperature: 22-24° C., humidity: 45-80%, illumination: 150-300 Lx, 12/12-hour light/dark cycle). When the mice were 4 weeks old, they were fed with a high-fat diet (purchased from Research Diets Inc. (USA), D12492i, fat content is 60%). After 12 weeks, diet-induced obese (DIO) mice model was established. Another group of mice fed with normal diet (D12450Bi, fat content is 10%) was used as a normal control group. The DIO mice were divided into two group according to body weights, and administrated orally F7 (50 mg/kg) or 0.1% Tween80 (the model control group) respectively, every afternoon just before black out for 5 weeks. The body weights of mice were measured daily, and the effect of Compound F7 on body weight was observed.

Each structure is given as a SMILES string. Several values for one entry are separate records, joined by “and”; a condition that tells them apart may be missing. Equal values may be shown once. Entries after “also recorded” stand apart in the source; their conditions may differ.

On to `COc1cc(C(=O)O)c2c(c1C)OC(=O)c1c(C)cc(O)c(C=O)c1O2` [Compound F7, 4-Formyl-3-hydroxy-8-methoxy-1,9-dimethyl-11-oxo-11H-dibenzo[b,e][1,4]dioxepine-6-carboxylic acid], for which the “Fasting Blood Glucose” value with ob/ob mice (0 day) is 14.0 ± 1.8 mM; in the assay on ob/ob mice (4 day), 11.3 ± 2.5 mM; in the assay with ob/ob mice (8 day), 11.1 ± 2.0 mM; in the assay with ob/ob mice (11 day), 8.8 ± 1.5 mM; in the assay with ob/ob mice (15 day) it was 8.5 ± 2.5 mM; in the assay with ob/ob mice (21 day, 50 mg/kg) it was 7.4 mM and 7.4 ± 1.3 mM. The “Reduction of fasting blood glucose” value in the assay on ob/ob mice (day 15 after administration) was 42%. In addition, the “Level of phosphorylation for AMPK protein versus DMSO control” value in assay [1] is on record as “significant up-regulation; also recorded: increased significantly”. The Body weight in assay [2] (0 day) was determined as 39.2 ± 3.8 g; in assay [2] (7 day) it was 36.4 ± 3.8 g; in assay [2] (14 day), 36.5 ± 4.2 g; in assay [2] (21 day), 36.2 ± 3.9 g; in assay [2] (28 day), 36.1 ± 2.6 g; in assay [2] (35 day) it was 35.8 ± 2.0 g. The “Body weight reduction compared with the model control group” value was 2 g in assay [2] (1 week after administration) and 4.5 g in assay [2] (5 weeks after administration).

(Values after patent US8158623B2, “Heptacyclic compounds and the pharmaceutical uses thereof for preventing and treating diabetes and metabolic syndrome” (Shanghai Institute of Materia Medica Chinese Academy of …, priority 2007, dated 2012).)
